Measured values from patent publication US9549560B2, “Pesticidal compositions and related methods” (DOW AGROSCIENCES LLC, priority 2013, dated 2017).

Columns and labels:
[1] = system: Sweetpotato Whitefly-Crawler (Bemisia tabaci); test: Insecticidal test for Sweetpotato Whitefly-Crawler (WF) (BEMITA) in foliar spray assay on cotton plants; assay type: in vivo; settings: 216 h, 200 ppm foliar spray, graded after 9 days, Abbott corrected % control, read-out: % Control (or Mortality) rating, WF
Procedure: Cotton plants (Gossypium hirsutum) grown in 3-inch pots, with 1 small (4-5 cm) true leaves, were used as test substrate. The plants were infested with 200-400 whitefly eggs 4-5 days prior to chemical application. Four pots with individual plants were used for each treatment. Test compounds (2 mg) were dissolved in 1 mL of acetone solvent, forming stock solutions of 2000 ppm test compound. The stock solutions were diluted 10× with 0.025% Tween 20 in H2O (diluents) to obtain the solution at 200 ppm test compound. A hand-held aspirator-type sprayer was used for spraying a solution to both sides of cotton leaves until runoff. Reference plants (solvent check) were sprayed with the diluent only containing 10% by volume of acetone solvent. Treated plants were held in a holding room for 9 days at approximately 25° C. and ambient relative humidity (RH) prior to grading. Evaluation was conducted by counting the number of live 3-4 nymph stage per plant under a microscope. Percent control was measured by using Abbott's correction formula (W. S. Abbott, “A Method of Computing the Effectiveness of an Insecticide,” J. Econ. Entomol. 18 (1925), pp. 265-267) as follows. Corrected % Control=100*(X−Y)/X
X=No. of live nymphs on solvent check plants and
Y=No. of live nymphs on treated plants.
(§1) Biological Data for Green Peach Aphid (GPA) (MYZUPE) and Sweetpotato Whitefly-crawler (WF) (BEMITA)” (See Table Section).

[2] = system: Green Peach Aphid (Myzus persicae); test: Bioassay for Green Peach Aphid (GPA) (MYZUPE), foliar spray on cabbage seedlings; assay type: in vivo; settings: 72 h, 200 ppm foliar spray, graded after three days, Abbott corrected % control, read-out: % Control (or Mortality) rating, GPA
Procedure: Cabbage seedlings grown in 3-inch pots, with 2-3 small (3-5 cm) true leaves, were used as test substrate. The seedlings were infested with 20-50 GPA (wingless adult and nymph stages) one day prior to chemical application. Four pots with individual seedlings were used for each treatment. Test compounds (2 mg) were dissolved in 2 mL of acetone/methanol (1:1) solvent, forming stock solutions of 1000 ppm test compound. The stock solutions were diluted 5× with 0.025% Tween 20 in H2O to obtain the solution at 200 ppm test compound. A hand-held aspirator-type sprayer was used for spraying a solution to both sides of […] leaves until runoff. Reference plants (solvent check) were sprayed with the diluent only containing 20% by volume of acetone/methanol (1:1) solvent. Treated plants were held in a holding room for three days at approximately 25° C. and ambient relative humidity (RH) prior to grading. Evaluation was conducted by counting the number of live aphids per plant under a microscope. Percent control was measured by using Abbott's correction formula (W. S. Abbott, “A Method of Computing the Effectiveness of an Insecticide,” J. Econ. Entomol. 18 (1925), pp. 265-267) as follows. Corrected % Control=100*(X−Y)/X
X=No. of live aphids on solvent check plants and
Y=No. of live aphids on treated plants
as §1

SMILES	mortality at 200 ppm [1] [%]	mortality at 200 ppm [2] [%]
C#CCNc1cn(-c2ccc[n+]([O-])c2)nc1Cl [CA1, 3-(3-Chloro-4-(prop-2-yn-1-ylamino)-1H-pyrazol-1-yl)pyridine 1-oxide]	0 to 80	0 to 80
CCNc1cn(-c2ccc[n+]([O-])c2)nc1C [CA2, 3-(4-(Ethylamino)-3-methyl-1H-pyrazol-1-yl)pyridine 1-oxide]	80 to 100	0 to 80
CNc1cn(-c2ccc[n+]([O-])c2)nc1Cl [CA3, 3-(3-Chloro-4-(methylamino)-1H-pyrazol-1-yl)pyridine 1-oxide]	0 to 80	80 to 100
CCNc1cn(-c2cc(F)c[n+]([O-])c2)nc1Cl [CA4, 3-(3-Chloro-4-(ethylamino)-1H-pyrazol-1-yl)-5-fluoropyridine 1-oxide]	0 to 80	0 to 80
CCNc1cn(-c2ccc[n+]([O-])c2)nc1Cl [Compound C1, 3-(3-chloro-4-(ethylamino)-1H-pyrazol-1-yl)pyridine 1-oxide]	0 to 80	0 to 80
CCN(C(=O)CC[S+]([O-])CCC(F)(F)F)c1cn(-c2ccc[n+]([O-])c2)nc1Cl (stereo not drawn) [Compound F1, 3-(3-chloro-4-(N-ethyl-3-((3,3,3-trifluoropropyl)sulfinyl)propanamido)-1H-pyrazol-1-yl)pyridine 1-oxide]	80 to 100	80 to 100
CCN(C(=O)CCSC)c1cn(-c2ccc[n+]([O-])c2)nc1Cl [Compound F2, 3-(3-Chloro-4-(N-ethyl-3-(methylthio)propanamido)-1H-pyrazol-1-yl) pyridine 1-oxide]	80 to 100	80 to 100
CCN(C(=O)C(C)CS(C)(=O)=O)c1cn(-c2ccc[n+]([O-])c2)nc1C (stereo not drawn) [Compound F4, 3-(4-(N-ethyl-2-methyl-3-(methylsulfonyl)propanamido)-3-methyl-1H-pyrazol-1-yl)pyridine-1-oxide]	80 to 100	80 to 100
CCN(C(=O)CCSCCC(F)(F)F)c1cn(-c2ccc[n+]([O-])c2)nc1Cl [Compound F5, 3-(3-chloro-4-(N-ethyl-3-((3,3,3-trifluoropropyl)thio)propanamido)-1H-pyrazol-1-yl)pyridine 1-oxide]	80 to 100	80 to 100
CCN(C(=O)C(C)C[S+](C)[O-])c1cn(-c2ccc[n+]([O-])c2)nc1Cl (stereo not drawn) [Compound F6]	80 to 100	80 to 100
CCN(C(=O)C(C)[S+]([O-])CC(F)(F)F)c1cn(-c2ccc[n+]([O-])c2)nc1Cl (stereo not drawn) [Compound F7, 3-(3-Chloro-4-(N-ethyl-2-((2,2,2-trifluoroethyl)sulfinyl)propanamido)-1H-pyrazol-1-yl)pyridine 1-oxide]	0 to 80	80 to 100
CCN(C(=O)C(C)S(=O)(=O)CC(F)(F)F)c1cn(-c2ccc[n+]([O-])c2)nc1Cl (stereo not drawn) [Compound F8, 3-(3-Chloro-4-(N-ethyl-2-((2,2,2-trifluoroethyl)sulfonyl)propanamido)-1H-pyrazol-1-yl)pyridine 1-oxide]	80 to 100	80 to 100
CCN(C(=O)CC[S+](C)[O-])c1cn(-c2ccc[n+]([O-])c2)nc1Cl (stereo not drawn) [Compound F9, 3-(3-Chloro-4-(N-ethyl-3-(methylsulfinyl)propanamido)-1H-pyrazol-1-yl) pyridine 1-oxide]	80 to 100	80 to 100
CCN(C(=O)C(C)CSC)c1cn(-c2ccc[n+]([O-])c2)nc1Cl (stereo not drawn) [Compound F10, 3-(3-Chloro-4-(N-ethyl-2-methyl-3-(methylthio)propajamido)-1H-pyrazol-1-yl)pyridine 1-oxide]	80 to 100	80 to 100
CCN(C(=O)CCS(=O)(=O)CC1CC1(F)F)c1cn(-c2ccc[n+]([O-])c2)nc1Cl (stereo not drawn) [Compound F11]	80 to 100	80 to 100
CCN(C(=O)C(C)CS(C)(=O)=O)c1cn(-c2ccc[n+]([O-])c2)nc1Cl (stereo not drawn) [Compound F12, 3-(3-Chloro-4-(N-ethyl-2-methyl-3-(methylsulfonyl)propanamido)-1H-pyrazol-1-yl) 1-oxide]	80 to 100	80 to 100
CCN(C(=O)CCS(=O)(=O)CCC(F)(F)F)c1cn(-c2ccc[n+]([O-])c2)nc1Cl [Compound F13, 3-(3-chloro-4-(N-ethyl-3-((3,3,3-trifluoropropyl)sulfonyl)propanamido)-1H-pyrazol-1-yl)pyridine 1-oxide]	80 to 100	80 to 100
CN(C(=O)CCSCCC(F)(F)F)c1cn(-c2ccc[n+]([O-])c2)nc1Cl [Compound P1, 3-(3-chloro-4-(N-methyl-3-((3,3,3-trifluoropropyl)thio)propanamido)-1H-pyrazol-1-yl)pyridine 1-oxide]	80 to 100	80 to 100
CN(C(=O)CC[S+]([O-])CCC(F)(F)F)c1cn(-c2ccc[n+]([O-])c2)nc1Cl (stereo not drawn) [Compound P2, 3-(3-chloro-4-(N-methyl-3-((3,3,3-trifluoropropyl)sulfinyl)propanamido)-1H-pyrazol-1-yl)pyridine 1-oxide]	80 to 100	80 to 100
C#CCN(C(=O)CCSCCC(F)(F)F)c1cn(-c2ccc[n+]([O-])c2)nc1Cl [Compound P9, 3-(3-Chloro-4-(N-(prop-2-yn-1-yl)-3-((3,3,3-trifluoropropyl)thio)propanamido)-1H-pyrazol-1-yl)pyridine 1-oxide]	80 to 100	80 to 100
C#CCN(C(=O)CC[S+]([O-])CCC(F)(F)F)c1cn(-c2ccc[n+]([O-])c2)nc1Cl (stereo not drawn) [Compound P10, 3-(3-chloro-4-(N-(prop-2-yn-1-yl)-3-((3,3,3-trifluoropropyl)sulfinyl)propanamido)-1H-pyrazol-1-yl)pyridine 1-oxide]	80 to 100	80 to 100
CCN(C(=O)CCSCCC(F)(F)F)c1cn(-c2ccc[n+]([O-])c2)nc1C [Compound P18, 3-(4-(N-Ethyl-3-((3,3,3-trilluoropropyl)thio)propanamido)-3-methyl-1H-pyrazol-1-yl)pyridine 1-oxide]	80 to 100	80 to 100
CCN(C(=O)CC[S+]([O-])CCC(F)(F)F)c1cn(-c2ccc[n+]([O-])c2)nc1C (stereo not drawn) [Compound P19, 3-(4-(N-Ethyl-3-((3,3,3-trilluoropropyl)sulfinyl)propanamido)-3-methyl-1H-pyrazol-1-yl)pyridine 1-oxide]	80 to 100	80 to 100
CCN(C(=O)CCSCCC(F)(F)F)c1cn(-c2cc(F)c[n+]([O-])c2)nc1Cl [Compound P36, 3-(3-Chloro-4-(N-ethyl-3-((3,3,3-trilluoropropyl)thio)propanamido)-1H-pyrazol-1-yl)-5-fluoropyridine 1-oxide]	80 to 100	80 to 100
CCN(C(=O)CC[S+]([O-])CCC(F)(F)F)c1cn(-c2cc(F)c[n+]([O-])c2)nc1Cl (stereo not drawn) [Compound P37, 3-(3-Chloro-4-(N-ethyl-3-((3,3,3-trilluoropropyl)sulfinyl)propanamido)-1H-pyrazol-1-yl)-5-fluoropyridine 1-oxide]	80 to 100	80 to 100
CCN(C(=O)CCSCC1CC1(F)F)c1cn(-c2ccc[n+]([O-])c2)nc1Cl (stereo not drawn) [Compound P48, 3-(3-Chloro-4-(3-(((2,2-difluorocyclopropyl)methyl)thio)-N-ethylpropanamido)-1H-pyrazol-1-yl)pyridine 1-oxide]	80 to 100	80 to 100
CCN(C(=O)C(C)S(C)(=O)=O)c1cn(-c2ccc[n+]([O-])c2)nc1Cl (stereo not drawn) [FA13, 3-(3-chloro-4-(N-ethyl-2-(methylsulfonyl)propanamido)-1H-pyrazol-1-yl)pyridine 1-oxide]	–	80 to 100
CC(C(=O)N(CC1CC1)c1cn(-c2ccc[n+]([O-])c2)nc1Cl)S(C)(=O)=O (stereo not drawn) [FA14, 3-(3-chloro-4-(N-(cyclopropylmethyl)-2-(methylsulfonyl)propanamido)-1H-pyrazol-1-yl)pyridine 1-oxide]	–	80 to 100
